Experimental data as given in patent US9242992B2, “Crystal form of tricyclic benzopyran compound and production method thereof” (NISSAN CHEMICAL INDUSTRIES, LTD., priority 2009, dated 2016).

Experiments:
Assay type in all cases: physicochemical
[1] = Acceleration test (total impurities by HPLC); details: for Increase of impurities in acceleration test (in words) / Total amount of impurities by HPLC, measured value after test: 40° C., 75% RH, 6 months, air-tight container; for Total amount of impurities by HPLC, initial value: Test Example 2, before the acceleration test
Experimental: The A-, B- and E-form crystals of Compound (1) were subjected to an acceleration test. The conditions for the test were as follows.
Acceleration test: 40° C., 75% RH, 6 months, in an air-tight container
(§1) In addition, the stability of the crystals was evaluated by the degree of increase of the total amount of impurities by HPLC analysis.

[2] = Water adsorption analysis; details: 25° C., sample 0.2 g, pre-treatment 60° C. 20 hours
Experimental: The A-, B- and E-form crystals of Compound (1) were evaluated by water adsorption analysis.
[Measurement conditions] sample amount: 0.2 g; pre-treatment: 60° C., 20 hours; temperature 25° C., Volumetric adsorption apparatus (trade name: BELSORP 18 manufactured by BEL Japan, Inc.) was used.

[3] = Solubility, Japanese Pharmacopoeia dissolution test in JP2 pH 6.8; details: for Solubility: JP2, pH 6.8, 60 minutes, 10 mg in 500 mL, 37° C.
Experimental: The solubility and the specific surface area of the A-form, B-form, E-form and F-form crystals of Compound (1) were examined.
[Measurement conditions] JP2, pH 6.8 (3.40 g of potassium dihydrogen phosphate and 3.55 g of anhydrous disodium hydrogen phosphate is dissolved in water to obtain 1 liter of solution. The 1 volume of the solution is mixed with the 1 volume of water to obtain JP2, pH 6.8.), 60 minutes
according to the Japanese Pharmacopoeia fifteenth edition, dissolution test (Protocol of the dissolution test; sample amount: 10 mg, test solution: JP2, pH 6.8, 500 mL, sampling point: 5, 15, 30, 60 min, paddle rotational speed: […], bath temperature: 37° C.)

[4] = Specific surface area by BET method (nitrogen adsorption); details: for Specific surface area: BET, adsorption temperature 77K, equilibrium time 300 seconds
Experimental: [Measurement conditions] adsorption temperature: 77K, adsorption equilibrium time: 300 seconds
[Measured value unit] square meter/gram
The measurement was performed by the BET method using the nitrogen adsorption in liquid nitrogen after a pre-treatment in refluxed liquid nitrogen.

[5] = Thermostability, humidity stability and photostability tests (total impurities by HPLC); details: for Total amount of impurities by HPLC, initial value: Test Example 1, before the stability tests
Experimental: The thermostability, humidity stability and photostability of the A-, B- and F-form crystals of Compound (1) were examined.
The conditions for each test were as follows.
Thermostability test: 60° C., humidity was not controlled, 2 weeks, in air-tight container
Humidity stability test: 25° C., 90% RH, 2 weeks, in opened container
Photostability test: 200 W/m^2·hr, 25° C., 60% RH, 57 hours, in opened container
as §1

[6] = High-temperature XRD measurement
Experimental: The A-form and B-form crystals of Compound (1) were subjected to the high-temperature XRD measurement.
As shown in FIG. 8 and FIG. 9, there was observed no change until 100° C. in the powder X-ray diffractogram of the A-form crystal and until 60° C. in the powder X-ray diffractogram of the B-form crystal.

Row | Increase of impurities in acceleration test (in words) [1] | Total amount of impurities by HPLC, measured value after test [1] [%] | Total amount of impurities by HPLC, initial value [1] [%] | Adsorption of water (in words) [2] | Solubility [3] [%] | Specific surface area [4] [square meter/gram] | Total amount of impurities by HPLC, initial value [5] [%] | Temperature until which no change was observed in the powder X-ray diffractogram [6] [°C] | Increase of impurities under the conditions (in words) ([5]; thermostability, humidity stability and photostability tests) | Adsorption of water (in words) ([2]; listed as A-form) | Solubility in the JP2 solution (in words) ([3]; JP2, pH 6.8) | Specific surface area (in words) ([4]; BET method) | SMILES
1 | no increase of impurities | 0.64 | 0.64 | no adsorption of water | 23 | 0.3 | – | – | – | – | – | – | Cc1cc(CO)nc2cc3c(cc12)OC(C)(C)[C@H](O)[C@H]3NCCc1ccccc1 [E-form crystal, (3R,4S)-7-hydroxymethyl-2,2,9-trimethyl-4-(phenethylamino)-3,4-dihydro-2H-pyrano[2,3-g]quinolin-3-ol]
2 | – | – | – | – | 30 | – | 0.25 | – | – | – | – | – | Cc1cc(CO)nc2cc3c(cc12)OC(C)(C)[C@H](O)[C@H]3NCCc1ccccc1 [F-form crystal, (3R,4S)-7-hydroxymethyl-2,2,9-trimethyl-4-(phenethylamino)-3,4-dihydro-2H-pyrano[2,3-g]quinolin-3-ol]
3 | no increase of impurities | 0.80 | 0.70 | less than that on E-form crystal | 36 | 0.7 | 0.84 | 100 | no increase of impurities | no adsorption of water | high solubility | high value | Cc1cc(CO)nc2cc3c(cc12)OC(C)(C)[C@H](O)[C@H]3NCCc1ccccc1 [A-form crystal, (3R,4S)-7-hydroxymethyl-2,2,9-trimethyl-4-(phenethylamino)-3,4-dihydro-2H-pyrano[2,3-g]quinolin-3-ol]

Row | SMILES | Increase of impurities in acceleration test (in words) [1] | Total amount of impurities by HPLC, measured value after test [1] [%] | Total amount of impurities by HPLC, initial value [1] [%] | Adsorption of water (in words) [2] | Solubility [3] [%] | Specific surface area [4] [square meter/gram] | Total amount of impurities by HPLC, initial value [5] [%] | Temperature until which no change was observed in the powder X-ray diffractogram [6] [°C] | Increase of impurities under the conditions (in words) ([5]; thermostability, humidity stability and photostability tests) | Adsorption of water (in words) ([2]; listed as A-form) | Solubility in the JP2 solution (in words) ([3]; JP2, pH 6.8) | Specific surface area (in words) ([4]; BET method)
4 | Cc1cc(CO)nc2cc3c(cc12)OC(C)(C)[C@H](O)[C@H]3NCCc1ccccc1 [B-form crystal, (3R,4S)-7-hydroxymethyl-2,2,9-trimethyl-4-(phenethylamino)-3,4-dihydro-2H-pyrano[2,3-g]quinolin-3-ol] | – | 1.15 | 0.42 | the adsorption of water was observed, the adsorption was reversible | 27 | 0.3 | 0.55 | 60 | – | – | – | –
